Measured values: ChEMBL document CHEMBL1201862, “PubChem BioAssay data set” (2004)
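48-hour exposure; five concentrations; linearly interpolated endpoints. GI50: concentration for 50% inhibition of growth.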 Activity calls are given as the source filed them. No stated cut-off is given here; in the data, active = GI50 up to about 1.1 µM and inactive = higher.

How the values were obtained:
Test in all cases: growth of human tumour cells (NCI), 48 h
[1] = tested on: M14
[2] = tested on: NCI-H23
[3] = tested on: SF-539
[4] = tested on: MDA-MB-231
[5] = tested on: HOP-92
[6] = tested on: RPMI-8226
[7] = tested on: HT-29
[8] = tested on: BT-549
[9] = tested on: EKVX
[10] = tested on: NCI-H460
[11] = tested on: 786-0
[12] = tested on: MDA-N
[13] = tested on: UACC-257
[14] = tested on: RXF 393
[15] = tested on: HOP-62
[16] = tested on: SR
[17] = tested on: SK-OV-3
[18] = tested on: NCI-H522
[19] = tested on: SK-MEL-28
[20] = tested on: A549
[21] = tested on: PC-3
[22] = tested on: MDA-MB-435
[23] = tested on: SNB-75
[24] = tested on: OVCAR-4
[25] = tested on: HCC 2998
[26] = tested on: SNB-19
[27] = tested on: ACHN
[28] = tested on: SF-295
[29] = tested on: CCRF-CEM
[30] = tested on: UACC-62
[31] = tested on: Hs-578T
[32] = tested on: HCT-15
[33] = tested on: A498
[34] = tested on: OVCAR-5
[35] = tested on: SN12C
[36] = tested on: DU-145
[37] = tested on: IGROV-1
[38] = tested on: OVCAR-3
[39] = tested on: KM12
[40] = tested on: K562
[41] = tested on: NCI/ADR-RES
[42] = tested on: MOLT-4
[43] = tested on: NCI-H226
[44] = tested on: T47D
[45] = tested on: UO-31
[46] = tested on: SK-MEL-5
[47] = tested on: COLO 205
[48] = tested on: Malme-3M
[49] = tested on: OVCAR-8
[50] = tested on: HL-60
[51] = tested on: HCT-116
[52] = tested on: TK-10
[53] = tested on: CAKI-1
[54] = tested on: SF-268
[55] = tested on: U-251
[56] = tested on: SK-MEL-2
[57] = tested on: MCF7
[58] = tested on: SW-620
[59] = tested on: LOX IMVI
[60] = tested on: LXFL 529
[61] = tested on: DMS-273
[62] = tested on: DLD-1
[63] = tested on: SNB-78
[64] = tested on: M19-MEL
[65] = tested on: KM-20L2

CN(C)c1ccc(C(=O)NCCCCCCC(=O)NO)cc1
GI50 [1]: 0.565 µM (active)
GI50 [2]: 0.562 µM (active)
GI50 [3]: 0.589 µM (active)
GI50 [4]: 0.697 µM (active)
GI50 [5]: 0.713 µM (active)
GI50 [6]: 0.195 µM (active)
GI50 [7]: 0.349 µM (active)
GI50 [8]: 1.7 µM (inactive)
GI50 [9]: 1.52 µM (inactive)
GI50 [10]: 0.417 µM (active)
GI50 [11]: 0.973 µM (active)
GI50 [12]: 0.233 µM (active)
GI50 [13]: 0.237 µM (active)
GI50 [14]: 0.303 µM (active)
GI50 [15]: 2.3 µM (inactive)
GI50 [16]: 0.205 µM (active)
GI50 [17]: 0.299 µM (active)
GI50 [18]: 0.11 µM (active)
GI50 [19]: 0.434 µM (active)
GI50 [20]: 0.514 µM (active)
GI50 [21]: 0.53 µM (active)
GI50 [22]: 0.264 µM (active)
GI50 [23]: 0.251 µM (active)
GI50 [24]: 1.64 µM (inactive)
GI50 [25]: 0.348 µM (active)
GI50 [26]: 2 µM (inactive)
GI50 [27]: 0.67 µM (active)
GI50 [28]: 0.326 µM (active)
GI50 [29]: 0.238 µM (active)
GI50 [30]: 0.275 µM (active)
GI50 [31]: 0.9 µM (active)
GI50 [32]: 1.27 µM
GI50 [33]: 0.711 µM (active)
GI50 [34]: 0.218 µM (active)
GI50 [35]: 0.378 µM (active)
GI50 [36]: 0.335 µM (active)
GI50 [37]: 0.553 µM (active)
GI50 [38]: 0.519 µM (active)
GI50 [39]: 0.684 µM (active)
GI50 [40]: 0.337 µM (active)
GI50 [41]: 0.14 µM (active)
GI50 [42]: 0.241 µM (active)
GI50 [43]: 2.75 µM (inactive)
GI50 [44]: 0.216 µM (active)
GI50 [45]: 0.557 µM (active)
GI50 [46]: 0.289 µM (active)
GI50 [47]: 0.33 µM (active)
GI50 [48]: 0.0948 µM (active)
GI50 [49]: 0.153 µM (active)
GI50 [50]: 0.397 µM (active)
GI50 [51]: 0.169 µM (active)
GI50 [52]: 0.33 µM (active)
GI50 [53]: 0.465 µM (active)
GI50 [54]: 0.435 µM (active)
GI50 [55]: 0.486 µM (active)
GI50 [56]: 0.19 µM (active)
GI50 [57]: 0.237 µM (active)
GI50 [58]: 0.312 µM (active)
GI50 [59]: 0.272 µM (active)

Nc1nc(=S)c2ncn(C3CC(O)C(CO)O3)c2[nH]1 (configuration not stated)
GI50 [60]: > 100 µM (inactive)

Cc1ccc(C(=O)Oc2ccccc2)cc1/N=N/N(C)C
GI50 [1]: > 100 µM (inactive)
GI50 [2]: > 58.6 µM (inactive)
GI50 [3]: > 100 µM (inactive)
GI50 [4]: > 100 µM (inactive)
GI50 [5]: > 100 µM (inactive)
GI50 [6]: > 100 µM (inactive)
GI50 [7]: 37.1 µM (inactive)
GI50 [8]: > 100 µM (inactive)
GI50 [9]: > 100 µM (inactive)
GI50 [10]: > 100 µM (inactive)
GI50 [11]: > 100 µM (inactive)
GI50 [12]: > 100 µM (inactive)
GI50 [13]: > 100 µM (inactive)
GI50 [15]: > 100 µM (inactive)
GI50 [16]: > 100 µM (inactive)
GI50 [17]: > 100 µM (inactive)
GI50 [18]: 42.7 µM (inactive)
GI50 [19]: > 100 µM (inactive)
GI50 [20]: > 100 µM (inactive)
GI50 [21]: > 100 µM (inactive)
GI50 [22]: > 100 µM (inactive)
GI50 [60]: > 100 µM (inactive)
GI50 [24]: > 86.9 µM (inactive)
GI50 [25]: > 100 µM (inactive)
GI50 [26]: > 92.3 µM (inactive)
GI50 [27]: > 100 µM (inactive)
GI50 [28]: > 69.3 µM (inactive)
GI50 [29]: 91.8 µM (inactive)
GI50 [30]: > 100 µM (inactive)
GI50 [31]: > 100 µM (inactive)
GI50 [32]: > 70.3 µM
GI50 [61]: 61.9 µM (inactive)
GI50 [34]: > 100 µM (inactive)
GI50 [35]: > 100 µM (inactive)
GI50 [36]: > 100 µM (inactive)
GI50 [37]: > 100 µM (inactive)
GI50 [62]: > 100 µM (inactive)
GI50 [38]: 43.4 µM (inactive)
GI50 [39]: 53.3 µM (inactive)
GI50 [40]: 76.4 µM (inactive)
GI50 [41]: > 100 µM (inactive)
GI50 [42]: > 100 µM (inactive)
GI50 [43]: > 100 µM (inactive)
GI50 [44]: 71.8 µM (inactive)
GI50 [45]: > 100 µM (inactive)
GI50 [46]: > 100 µM (inactive)
GI50 [47]: > 100 µM (inactive)
GI50 [48]: > 100 µM (inactive)
GI50 [49]: > 100 µM (inactive)
GI50 [50]: 78 µM (inactive)
GI50 [51]: > 100 µM (inactive)
GI50 [52]: > 100 µM (inactive)
GI50 [53]: > 100 µM (inactive)
GI50 [63]: > 100 µM (inactive)
GI50 [64]: > 100 µM (inactive)
GI50 [54]: > 87.7 µM (inactive)
GI50 [55]: > 100 µM (inactive)
GI50 [65]: 38.3 µM (inactive)
GI50 [56]: > 100 µM (inactive)
GI50 [57]: 36.8 µM (inactive)
GI50 [58]: > 100 µM (inactive)
GI50 [59]: 59.8 µM (inactive)
